Reference: ChEMBL document CHEMBL1201862, “PubChem BioAssay data set” (2004)
Where a name gives a salt, the structure may show the parent alone. Each block holds one molecule with its values, some of them ahead of it. Active and inactive are the calls of the source.

Assays:
[1] = biological target: T1, Polyadenylate-binding protein 1 (Homo sapiens, UniProt P11940); experiment: PABP1 MLLE–PAM2 binding inhibitor potency, dose response, biochemical, fluorescence polarization, FITC-PAM2 peptide (AID 602259); format: functional; details: read-out: IC50_Mean
[2] = biological target: T1, Polyadenylate-binding protein 1; experiment: PABP1 MLLE–PAM2 interaction inhibitors, dose response, miRNA deadenylation inhibitor project, biochemical, fluorescence polarization, Cy5-PAM2 peptide, secondary (AID 602260); format: functional; details: read-out: IC50_Mean
[3] = biological target: T2, Hepatocyte nuclear factor 4-alpha (Homo sapiens, UniProt P41235); format: functional, cell-based;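 also: biochemical luminescence-based dose-response counterscreen measuring inhibition of HNF4 dimerization, run alongside a screen for blockers of ABHD5–perilipin-5 interaction; split luciferase complementation of HNF4 fusion proteins in cell lysate measuring dimerization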
T2 sequence (P41235 whole entry): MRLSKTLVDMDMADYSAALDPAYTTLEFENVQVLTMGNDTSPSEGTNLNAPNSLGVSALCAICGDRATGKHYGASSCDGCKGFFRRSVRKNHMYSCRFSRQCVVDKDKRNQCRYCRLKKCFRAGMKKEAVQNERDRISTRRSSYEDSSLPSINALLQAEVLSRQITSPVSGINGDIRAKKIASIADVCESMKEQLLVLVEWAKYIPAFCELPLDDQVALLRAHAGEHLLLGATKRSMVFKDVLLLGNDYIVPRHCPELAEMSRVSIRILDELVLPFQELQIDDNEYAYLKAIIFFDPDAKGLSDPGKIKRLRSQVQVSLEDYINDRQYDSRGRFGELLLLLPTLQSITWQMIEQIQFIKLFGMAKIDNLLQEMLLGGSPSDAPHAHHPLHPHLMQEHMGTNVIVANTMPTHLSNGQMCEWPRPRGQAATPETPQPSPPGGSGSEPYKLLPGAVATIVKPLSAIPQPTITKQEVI

[4] = THP-1 cell cytotoxicity, dose response, cytotoxicity control for Vif-APOBEC3G degradation inhibitor project, THP-1 cells (AID 1117359); format: functional; details: Human immunodeficiency virus 1, THP-1
[5] = CRF-BP/CRF-R2 complex antagonists, dose response, cell-based, uHTS hits, 384-well (AID 651639); format: functional, Homo sapiens; details: read-out: IC50_Mean
[6] = biological target: T3, Corticotropin-releasing factor receptor 2/Corticotropin-releasing factor-binding protein (Homo sapiens, UniProt P24387+Q13324); experiment: activators of CRF receptor 2 with binding protein – uHTS hits, confirmation (AID 602473); format: functional; details: read-out: EC50_Mean
T3 sequence (Q13324 whole entry): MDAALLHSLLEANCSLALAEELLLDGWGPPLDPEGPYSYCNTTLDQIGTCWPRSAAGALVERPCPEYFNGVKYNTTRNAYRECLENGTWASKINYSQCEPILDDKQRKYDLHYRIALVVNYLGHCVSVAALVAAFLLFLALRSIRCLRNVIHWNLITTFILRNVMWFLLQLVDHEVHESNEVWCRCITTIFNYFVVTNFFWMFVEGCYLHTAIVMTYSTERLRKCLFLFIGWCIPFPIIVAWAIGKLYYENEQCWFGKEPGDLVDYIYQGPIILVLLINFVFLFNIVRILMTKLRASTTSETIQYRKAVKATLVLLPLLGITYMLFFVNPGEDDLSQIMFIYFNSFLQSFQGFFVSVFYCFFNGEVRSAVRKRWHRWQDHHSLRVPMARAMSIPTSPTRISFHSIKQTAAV
T3 sequence (P24387 whole entry): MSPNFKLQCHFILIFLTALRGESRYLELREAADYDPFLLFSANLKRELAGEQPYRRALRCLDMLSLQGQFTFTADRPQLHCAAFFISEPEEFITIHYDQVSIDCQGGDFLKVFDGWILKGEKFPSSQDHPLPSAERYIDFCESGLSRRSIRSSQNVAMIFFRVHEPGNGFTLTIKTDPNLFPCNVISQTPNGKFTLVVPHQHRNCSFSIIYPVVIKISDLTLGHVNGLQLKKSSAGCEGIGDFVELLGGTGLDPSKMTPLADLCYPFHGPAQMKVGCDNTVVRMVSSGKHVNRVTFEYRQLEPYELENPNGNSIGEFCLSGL

[7] = biological target: T3, Corticotropin-releasing factor receptor 2/Corticotropin-releasing factor-binding protein; experiment: Dose Response confirmation of uHTS hits for small molecule antagonists of the CRF-binding protein and CRF-R2 receptor complex.; format: functional; details: read-out: IC50_Mean
[8] = biological target: T4, Sentrin-specific protease 8 (Homo sapiens, UniProt Q96LD8); format: functional
T4 sequence (Q96LD8 whole entry): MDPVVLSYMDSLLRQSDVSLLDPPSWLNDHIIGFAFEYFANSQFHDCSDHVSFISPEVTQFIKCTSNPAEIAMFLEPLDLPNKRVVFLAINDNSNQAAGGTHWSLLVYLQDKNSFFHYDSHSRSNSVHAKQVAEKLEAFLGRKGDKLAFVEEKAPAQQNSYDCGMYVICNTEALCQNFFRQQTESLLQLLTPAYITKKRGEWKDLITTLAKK

[9] = biological target: T4, Sentrin-specific protease 8; format: functional; remark: listed apart in the source
[10] = biological target: Kallikrein-7 (Homo sapiens, UniProt P49862); experiment: Fluorescence Intensity-based biochemical primary high throughput dose response assay to identify activators of kallikrein-7 (K7) zymogen.
[11] = biological target: T5, DNA repair and recombination protein RAD54-like (Homo sapiens, UniProt Q92698); experiment: inhibitors of human RAD54 branch migration, confirmation, biochemical, fluorescence, cherry-picked samples, dose series (AID 651657); format: functional
T5 sequence (Q92698 whole entry): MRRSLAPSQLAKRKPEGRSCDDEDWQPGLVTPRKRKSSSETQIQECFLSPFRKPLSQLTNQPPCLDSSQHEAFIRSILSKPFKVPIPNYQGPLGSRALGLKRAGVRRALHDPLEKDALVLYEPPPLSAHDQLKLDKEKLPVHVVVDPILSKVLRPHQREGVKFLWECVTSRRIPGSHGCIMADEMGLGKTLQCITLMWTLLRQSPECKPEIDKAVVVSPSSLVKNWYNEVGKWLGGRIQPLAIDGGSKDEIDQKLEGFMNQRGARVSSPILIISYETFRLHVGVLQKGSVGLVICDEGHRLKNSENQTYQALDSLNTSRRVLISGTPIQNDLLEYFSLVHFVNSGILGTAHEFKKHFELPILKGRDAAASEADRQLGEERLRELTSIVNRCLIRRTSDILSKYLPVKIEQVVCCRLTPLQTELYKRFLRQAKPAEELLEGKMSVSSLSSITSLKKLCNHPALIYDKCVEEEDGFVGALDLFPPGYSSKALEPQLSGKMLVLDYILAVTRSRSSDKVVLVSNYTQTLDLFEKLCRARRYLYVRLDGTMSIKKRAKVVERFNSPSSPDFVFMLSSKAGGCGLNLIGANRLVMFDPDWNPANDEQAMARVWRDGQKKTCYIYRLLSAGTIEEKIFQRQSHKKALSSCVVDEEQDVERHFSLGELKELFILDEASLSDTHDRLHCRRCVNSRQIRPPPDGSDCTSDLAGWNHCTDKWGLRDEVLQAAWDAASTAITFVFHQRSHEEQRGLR

[12] = biological target: T6, Protein Tat (Human immunodeficiency virus type 1 group M subtype B (isolate HXB2)(HIV-1), UniProt P04608); format: functional;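 also: tat binding to TAR RNA read out by fluorescence polarization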
T6 sequence (P04608 whole entry): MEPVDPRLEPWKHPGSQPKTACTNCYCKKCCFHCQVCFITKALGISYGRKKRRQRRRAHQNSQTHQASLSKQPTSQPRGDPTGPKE

[13] = biological target: Cytochrome P450 2C9 (Homo sapiens, UniProt P11712)
[14] = cells; format: functional, cell-based
[15] = inhibitors of intracellular T. cruzi replication, confirmation, NIH3T3 host cells, beta-gal luminescence (AID 2044); format: functional, cell-based;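 also: intracellular parasites grown in NIH/3T3 mouse fibroblasts as host cells; luminescent beta-galactosidase reporter signal from transgenic T. cruzi replicating inside host cells; inhibitors lower the luminescence signal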
[16] = biological target: Cytochrome P450 3A4 (Homo sapiens, UniProt P08684);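 also: CYP3A4 tested as one member of a cytochrome P450 panel screen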
[17] = cells; format: functional, cell-based; remark: listed apart in the source
[18] = cytotoxicity toward NIH3T3 fibroblasts, dose response, counter-screen, cell-based, ATP luminescence, mouse fibroblasts (AID 2010); format: functional;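 also: cells exposed to compound for about 90 hours before reading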
[19] = inhibitors of PGC1a acetylation in cells, dose response, cell-based, cherry-picked samples (AID 720514); format: functional;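 also: potency may reflect raised or lowered acetylation signal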
[20] = biological target: Photoreceptor-specific nuclear receptor (Homo sapiens, UniProt Q9Y5X4); format: functional, cell-based;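 also: CHO-S cells with Gal4-NCOR and VP16-NR2E3 two-hybrid luciferase reporter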
[21] = system: INS1; experiment: beta cell apoptosis inhibitors, cytokine rescue, dose response, luminescence, retest (AID 449756); format: functional, cell-based; details: Rattus norvegicus;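 also: cell death triggered by IL-1 beta plus TNF-alpha plus IFN-gamma mixture; protective hits raise ATP signal compared with cytokine alone wells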
[22] = A549 cell cytotoxicity, dose response, cytotoxicity control, plate reader, cherry-pick, antagonist series (AID 743412); format: functional, cell-based
[23] = growth suppression of beta-catenin-knockout colon cells, dose response, cell-based, HCT116, human colon tumor (AID 1045); format: functional;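 also: HCT116 colon tumor cells with beta catenin knocked out; cells exposed to compound for 60 hours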
[24] = growth suppression of PTEN-null colon cells, dose response, cell-based, HCT116 PTEN knockout (AID 1047); format: functional;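 also: HCT116 colon tumor cells with PTEN knocked out; cells exposed to compound for 60 hours before readout; potency for loss of cell viability measured by luminescence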
[25] = LGR2 antagonists, dose response, cell-based, HEK293, CRE-luciferase reporter, cherry pick, set 2 (AID 743343); format: functional;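 also: transfected cells were stimulated with diluted bursicon conditioned medium after compound addition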
[26] = HEK293 cell cytotoxicity, dose response, cytotoxicity control, plate reader, cherry-picked samples (AID 743446); format: functional, cell-based
[27] = MC4R antagonists, dose response, counter-screen for LGR2 antagonist project, cell-based, plate reader, cherry pick (AID 743444); format: functional;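 also: transfected HEK 293 cells stimulated with alpha-MSH peptide; potency of inhibitors of the alpha-MSH evoked signal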
[28] = biological target: T7, Cytochrome P450 1A2 (Homo sapiens, UniProt P05177);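 also: PubChem cytochrome P450 panel assay, CYP1A2 panel member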
T7 sequence (P05177 whole entry): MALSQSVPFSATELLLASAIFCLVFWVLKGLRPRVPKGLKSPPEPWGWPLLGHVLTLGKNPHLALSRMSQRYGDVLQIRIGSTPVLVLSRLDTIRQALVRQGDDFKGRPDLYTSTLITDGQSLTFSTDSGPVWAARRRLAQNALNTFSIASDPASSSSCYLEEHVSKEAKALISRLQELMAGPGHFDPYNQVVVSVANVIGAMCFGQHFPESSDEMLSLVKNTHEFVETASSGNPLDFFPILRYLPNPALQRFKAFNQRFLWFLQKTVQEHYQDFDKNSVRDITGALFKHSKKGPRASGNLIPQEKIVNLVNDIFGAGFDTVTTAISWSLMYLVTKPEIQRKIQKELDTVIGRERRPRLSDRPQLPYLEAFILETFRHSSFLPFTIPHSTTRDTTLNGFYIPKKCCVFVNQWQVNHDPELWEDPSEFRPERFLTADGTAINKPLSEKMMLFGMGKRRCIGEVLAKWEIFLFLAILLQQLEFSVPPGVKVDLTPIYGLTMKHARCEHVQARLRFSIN

Sequence of Kallikrein-7 (P49862 whole entry): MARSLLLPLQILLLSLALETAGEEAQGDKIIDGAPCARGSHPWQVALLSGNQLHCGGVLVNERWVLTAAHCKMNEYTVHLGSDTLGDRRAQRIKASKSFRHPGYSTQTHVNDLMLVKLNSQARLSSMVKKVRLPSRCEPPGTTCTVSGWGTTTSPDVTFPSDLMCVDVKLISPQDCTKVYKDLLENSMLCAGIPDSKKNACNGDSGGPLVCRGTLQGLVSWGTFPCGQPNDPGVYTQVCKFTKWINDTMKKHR
T1 sequence (P11940 whole entry): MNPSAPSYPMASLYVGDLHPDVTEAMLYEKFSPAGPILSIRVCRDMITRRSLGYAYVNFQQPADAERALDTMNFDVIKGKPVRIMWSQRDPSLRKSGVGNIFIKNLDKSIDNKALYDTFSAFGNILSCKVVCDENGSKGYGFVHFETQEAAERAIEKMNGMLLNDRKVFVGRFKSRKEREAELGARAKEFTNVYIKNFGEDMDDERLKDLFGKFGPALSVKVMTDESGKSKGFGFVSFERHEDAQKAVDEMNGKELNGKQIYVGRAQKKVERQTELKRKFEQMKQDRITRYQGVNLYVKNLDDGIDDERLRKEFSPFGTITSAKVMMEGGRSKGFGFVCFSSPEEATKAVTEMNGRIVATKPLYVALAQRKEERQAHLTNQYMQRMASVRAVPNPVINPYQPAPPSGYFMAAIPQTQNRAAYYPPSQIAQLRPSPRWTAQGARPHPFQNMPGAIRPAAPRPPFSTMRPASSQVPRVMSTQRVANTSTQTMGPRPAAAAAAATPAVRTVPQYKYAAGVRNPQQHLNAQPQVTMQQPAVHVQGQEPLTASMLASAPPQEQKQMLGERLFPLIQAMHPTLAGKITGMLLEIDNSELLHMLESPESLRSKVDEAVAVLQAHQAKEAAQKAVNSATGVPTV
Sequence of Photoreceptor-specific nuclear receptor (Q9Y5X4 whole entry, the tested form may be a part): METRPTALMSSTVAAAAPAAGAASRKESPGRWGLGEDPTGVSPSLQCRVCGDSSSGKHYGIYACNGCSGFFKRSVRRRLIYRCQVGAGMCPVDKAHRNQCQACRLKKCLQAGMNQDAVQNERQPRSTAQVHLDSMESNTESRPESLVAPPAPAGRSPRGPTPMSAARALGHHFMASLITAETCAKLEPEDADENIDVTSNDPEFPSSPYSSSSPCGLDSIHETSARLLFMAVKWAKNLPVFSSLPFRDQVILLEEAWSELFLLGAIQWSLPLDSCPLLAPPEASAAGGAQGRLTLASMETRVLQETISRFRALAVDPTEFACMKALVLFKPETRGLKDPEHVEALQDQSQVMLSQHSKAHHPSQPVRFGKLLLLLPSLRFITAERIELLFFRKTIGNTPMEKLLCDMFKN
Sequence of Cytochrome P450 3A4 (P08684 whole entry): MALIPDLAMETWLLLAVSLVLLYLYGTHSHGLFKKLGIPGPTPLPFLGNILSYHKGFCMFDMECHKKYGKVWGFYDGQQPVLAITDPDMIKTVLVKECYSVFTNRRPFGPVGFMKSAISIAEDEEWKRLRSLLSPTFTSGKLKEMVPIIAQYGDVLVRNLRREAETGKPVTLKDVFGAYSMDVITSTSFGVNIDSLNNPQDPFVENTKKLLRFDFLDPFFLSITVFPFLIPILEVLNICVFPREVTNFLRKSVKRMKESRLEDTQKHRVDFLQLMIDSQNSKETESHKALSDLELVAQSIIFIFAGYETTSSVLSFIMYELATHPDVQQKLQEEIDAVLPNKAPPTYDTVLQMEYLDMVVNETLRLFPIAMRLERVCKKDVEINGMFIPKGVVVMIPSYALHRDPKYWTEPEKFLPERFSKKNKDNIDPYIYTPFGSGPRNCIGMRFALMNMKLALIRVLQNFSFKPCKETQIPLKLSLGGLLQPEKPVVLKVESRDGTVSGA
Sequence of Cytochrome P450 2C9 (P11712 whole entry): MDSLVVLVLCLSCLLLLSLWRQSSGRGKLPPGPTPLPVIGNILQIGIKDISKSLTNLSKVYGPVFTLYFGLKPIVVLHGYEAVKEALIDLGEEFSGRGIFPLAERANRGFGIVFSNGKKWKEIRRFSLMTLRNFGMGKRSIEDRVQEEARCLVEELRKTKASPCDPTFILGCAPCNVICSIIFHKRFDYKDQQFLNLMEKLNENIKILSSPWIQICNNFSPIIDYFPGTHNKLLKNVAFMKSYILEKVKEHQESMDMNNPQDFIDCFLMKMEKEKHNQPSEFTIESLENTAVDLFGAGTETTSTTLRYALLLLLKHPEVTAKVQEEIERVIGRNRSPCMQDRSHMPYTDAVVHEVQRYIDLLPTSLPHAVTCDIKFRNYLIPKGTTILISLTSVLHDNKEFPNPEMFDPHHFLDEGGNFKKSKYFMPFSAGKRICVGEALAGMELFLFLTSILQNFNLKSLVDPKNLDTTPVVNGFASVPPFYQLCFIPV

IC50 [5]: 14.4 µM (active)
EC50 [6]: > 53 µM (inactive)
IC50 [7]: 10.3 µM (active)
Compound: Cc1ccc(S(=O)(=O)N(CC(=O)Nc2ccccc2C(=O)O)c2ccc(Cl)cc2)cc1

EC50 [10]: > 69.5 µM (inactive)
Compound: Cc1cccc(C)c1NC(=O)C(c1ccccc1)N1CC(=O)Nc2ccccc21 (stereo unspecified)

AC50 [11]: 56.3 µM (active)
Compound: CCOC(=O)c1c(C)n(C)c2ccc(OCC(O)CN3CCC(C)CC3)cc12 (stereo unspecified)

IC50 [5]: > 20 µM (inactive)
EC50 [6]: > 53 µM (inactive)
IC50 [7]: < 0.368 µM (active)
Compound: CCc1nnc(NS(=O)(=O)c2ccc(NC(=S)NC(=O)/C=C/c3ccccc3)cc2)s1

IC50 [5]: > 20 µM (inactive)
EC50 [6]: > 53 µM (inactive)
IC50 [7]: 3.48 µM (active)
Compound: O=c1c2ccccc2n(Cc2ccc(F)cc2)c(=O)n1C1CCCC1

IC50 [12]: > 100 µM (active)
Compound: CC(C)CCN1CCN(Cc2cccn2-c2cccnc2)CC1CCO (stereo unspecified)

AC50 [13]: 35.5 µM (inconclusive)
EC50 [10]: 9.72 µM (active)
Compound: Cc1ccc(C(=O)Nc2ccc3nccnc3c2)cc1

IC50 [3]: 3.64 µM (active)
Compound: Cc1cccc(C)c1NC(=O)C(c1ccnc2ccccc12)n1c(=O)c(-c2ccco2)nc2ccccc21 (stereo unspecified)

AC50 [28]: 12.6 µM (inconclusive)
IC50 [3]: 10.9 µM (inactive)
Compound: CCN(CC)CCOCCOC(=O)C1(c2ccccc2)CCCC1 [CARBETAPENTANE CITRATE]

EC50 [10]: > 69.5 µM (inactive)
Compound: Cc1cc(N2CCCC2)nc2ccc(NC(=S)NCCCOC(C)C)cc12

IC50 [12]: > 100 µM (active)
Compound: O=C(c1cc2n(n1)C(C(F)(F)F)CC(c1ccco1)N2)N1CCc2ccccc2C1 (stereo unspecified)

Further lines, the molecule ahead of its results:

Compound: CCOC1=CC2=C(C(=O)C(Cl)=CC2=O)[C@@H]2CN(S(=O)(=O)c3ccc(C)cc3)[C@@H](c3ccccc3)[C@H]12
IC50 [1]: > 66 µM (inactive)
IC50 [2]: > 66 µM (inactive)
IC50 [3]: 0.814 µM (active)

Compound: COc1cc(C)c(C2NC(=O)c3ccccc3N2)cc1C (stereo unspecified)
CC50 [4]: 2.86 µM (active)

Compound: CC1(OC(=O)C2CCCC2)C(=O)C=C2C=C3CCCCN3C=C2C1=O (stereo unspecified)
IC50 [8]: 3.82 µM (active)
IC50 [9]: 4.28 µM (active)

Compound: COc1cc(OC)c2nc(C)c3c(c2c1)N(c1ccc(O)cc1)CC3
AC50 [11]: 9.09 µM (active)
EC50 [14]: > 350 µM (not active)
EC50 [15]: 2.49 µM (active)
AC50 [16]: 10 µM (inconclusive)
EC50 [17]: > 350 µM (not active)
EC50 [18]: > 60 µM (not active)

Compound: O=C1C=CCCN1C(=O)/C=C/c1ccccc1Cl
AC50 [19]: 0.617 µM (active)

Compound: Cc1cc(Cl)cc2c1NC(=O)[C@]21[C@@H]2C(=O)N(Cc3ccccc3)C(=O)[C@@H]2[C@@H]2CCCN21
IC50 [12]: > 100 µM (active)

Compound: O=c1cc(N2CCN(c3cccc(Cl)c3)CC2)[nH]c(=O)n1C1CCCCC1
AC50 [13]: 3.16 µM (inconclusive)
IC50 [20]: 0.0374 µM (active)
AC50 [16]: 3.55 µM (inconclusive)
AC50 [21]: 1.15 µM (active)

Compound: Cc1ccc(C#N)c(SCc2nnc(-c3ccc(Cl)cc3)o2)n1
AC50 [22]: 30.9 µM (active)
EC50 [23]: 15.7 µM (active)
IC50 [20]: 1.47 µM (active)
EC50 [24]: 8.1 µM (active)
AC50 [25]: 0.181 µM (active)
AC50 [26]: > 52 µM (inactive)
AC50 [27]: 0.209 µM (active)

Compound: CC1(OC(=O)c2ccc(Cl)nc2)C(=O)C=C2C=C3CCCN3C=C2C1=O (stereo unspecified)
IC50 [8]: 5.33 µM (active)
IC50 [9]: 8.11 µM (active)
